Experimental data: PubChem BioAssay AID330 (DTP/NCI, 2004)
Values joined by “and” are separate entries in the source; they are usually repeats but may differ in a detail not shown here. Identical values can stand only once. Toxic doses and inconclusive results are not listed. Rule for the calls: active = survival T/C of 150% or more; inactive = T/C below 125% in these data.

Tested on: P388 leukemia ip, CD2F1 mice, survival T/C
Assay: NCI In Vivo Anticancer Drug Screen. Data for tumor model P388 Leukemia (intraperitoneal) in CD2F1 (CDF1) mice
Settings: endpoint: median survival time, higher = longer survival
Procedure, shortened: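 Mice carrying the transplanted tumor received test compound or vehicle. Survival was recorded in each group, and the value is the treated-group measurement divided by that of the vehicle-treated control group.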

[1] = dose: 25.0 mg/kg/injection, schedule: Q01DX009 (ip), vehicle: Klucel (hydroxypropylcellulose) (HPC)
[2] = dose: 50.0 mg/kg/injection, schedule: Q01DX009 (ip), vehicle: saline
[3] = dose: 100.0 mg/kg/injection, schedule: Q01DX009 (ip), vehicle: saline
[4] = dose: 200.0 mg/kg/injection, schedule: Q01DX009 (ip), vehicle: saline
[5] = dose: 50.0 mg/kg/injection, schedule: Q01DX009 (ip), vehicle: Klucel (hydroxypropylcellulose) (HPC)
[6] = dose: 50.0 mg/kg/injection, schedule: Q01DX009 (ip), vehicle: suspension in saline
[7] = dose: 100.0 mg/kg/injection, schedule: Q01DX009 (ip), vehicle: suspension in saline
[8] = dose: 200.0 mg/kg/injection, schedule: Q01DX009 (ip), vehicle: suspension in saline
[9] = dose: 50.0 mg/kg/injection, schedule: Q01DX005 (ip), vehicle: saline with Tween-80
[10] = dose: 200.0 mg/kg/injection, schedule: Q01DX005 (ip), vehicle: saline with Tween-80
[11] = dose: 25.0 mg/kg/injection, schedule: Q01DX009 (ip), vehicle: saline with Tween-80
[12] = dose: 50.0 mg/kg/injection, schedule: Q01DX009 (ip), vehicle: saline with Tween-80
[13] = dose: 100.0 mg/kg/injection, schedule: Q01DX009 (ip), vehicle: saline with Tween-80
[14] = dose: 200.0 mg/kg/injection, schedule: Q01DX009 (ip), vehicle: saline with Tween-80
[15] = dose: 60.0 mg/kg/injection, schedule: Q01DX005 (ip), vehicle: saline with Tween-80
[16] = dose: 120.0 mg/kg/injection, schedule: Q01DX005 (ip), vehicle: saline with Tween-80
[17] = dose: 240.0 mg/kg/injection, schedule: Q01DX005 (ip), vehicle: saline with Tween-80

Measured: T/C

CCN(CC)[P+](c1cc(OC)ccc1OC)(N(CC)CC)N(CC)CC
inactive: dose: 1.56 mg/kg/injection, schedule: Q01DX009 (ip), vehicle: Klucel (hydroxypropylcellulose) (HPC) 121 % of control | dose: 3.13 mg/kg/injection, schedule: Q01DX009 (ip), vehicle: Klucel (hydroxypropylcellulose) (HPC) 106 % of control | [1] 91 % of control

CCCCCCCCCCCCCCCCOc1ccc(C(=O)O)cc1S(=O)(=O)N/N=c1/sc2cc(Cl)cc(Cl)c2n1C
inactive: [2] 88 % of control | [3] 93 % of control | [4] 86 % of control

O=C(O)CCOCCCOCCC(=O)O
inactive: dose: 50.0 mg/kg/injection, schedule: Q01DX005 (ip), vehicle: saline 95 % of control | dose: 100.0 mg/kg/injection, schedule: Q01DX005 (ip), vehicle: saline 98 % of control | dose: 200.0 mg/kg/injection, schedule: Q01DX005 (ip), vehicle: saline 100 % of control

COc1ccc2c(=O)cc(-c3ccccc3)sc2c1
inactive: dose: 60.0 mg/kg/injection, schedule: Q01DX005 (ip), vehicle: Klucel (hydroxypropylcellulose) (HPC) 106 % of control | dose: 120.0 mg/kg/injection, schedule: Q01DX005 (ip), vehicle: Klucel (hydroxypropylcellulose) (HPC) 104 % of control | dose: 240.0 mg/kg/injection, schedule: Q01DX005 (ip), vehicle: Klucel (hydroxypropylcellulose) (HPC) 98 % of control

COc1ccn(CC2(C)CO2)c(=O)n1 (stereo not drawn)
inactive: dose: 60.0 mg/kg/injection, schedule: Q01DX005 (ip), vehicle: saline 103 % of control | dose: 120.0 mg/kg/injection, schedule: Q01DX005 (ip), vehicle: saline 106 % of control | dose: 240.0 mg/kg/injection, schedule: Q01DX005 (ip), vehicle: saline 104 % of control

O=c1[nH]c2ccccc2[nH]1
inactive: [5] 114 % of control and 98 % of control | [6] 99 % of control and 90 % of control | dose: 100.0 mg/kg/injection, schedule: Q01DX009 (ip), vehicle: Klucel (hydroxypropylcellulose) (HPC) 107 % of control and 98 % of control | [7] 100 % of control | dose: 200.0 mg/kg/injection, schedule: Q01DX009 (ip), vehicle: Klucel (hydroxypropylcellulose) (HPC) 117 % of control | [8] 101 % of control and 96 % of control | dose: 400.0 mg/kg/injection, schedule: Q01DX009 (ip), vehicle: suspension in saline 101 % of control and 88 % of control

O=C(NC(O)C(Cl)(Cl)Cl)c1ccccc1 (stereo not drawn)
inactive: dose: 12.5 mg/kg/injection, schedule: Q01DX005 (ip), vehicle: saline with Tween-80 95 % of control | dose: 25.0 mg/kg/injection, schedule: Q01DX005 (ip), vehicle: saline with Tween-80 102 % of control | [9] 100 % of control | [10] 96 % of control

Cc1ccc(S(=O)(=O)N/N=C/c2ccc(O)c(O)c2)cc1
inactive: dose: 12.5 mg/kg/injection, schedule: Q01DX009 (ip), vehicle: other 112 % of control | dose: 25.0 mg/kg/injection, schedule: Q01DX009 (ip), vehicle: other 112 % of control | dose: 50.0 mg/kg/injection, schedule: Q01DX009 (ip), vehicle: other 112 % of control | dose: 100.0 mg/kg/injection, schedule: Q01DX009 (ip), vehicle: other 111 % of control and 120 % of control | dose: 200.0 mg/kg/injection, schedule: Q01DX009 (ip), vehicle: other 112 % of control and 121 % of control | dose: 400.0 mg/kg/injection, schedule: Q01DX009 (ip), vehicle: other 122 % of control

CCCC12C=C(OC)C(=O)C=C1OC(c1ccc3c(c1)OCO3)C2C (stereo not drawn)
inactive: dose: 8.75 mg/kg/injection, schedule: Q01DX005 (ip), vehicle: Klucel (hydroxypropylcellulose) (HPC) 106 % of control | dose: 17.5 mg/kg/injection, schedule: Q01DX005 (ip), vehicle: Klucel (hydroxypropylcellulose) (HPC) 104 % of control | dose: 35.0 mg/kg/injection, schedule: Q01DX005 (ip), vehicle: Klucel (hydroxypropylcellulose) (HPC) 104 % of control

NC(=S)N/N=C\C(=N/NC(N)=S)c1cccc([N+](=O)[O-])c1
inactive: dose: 12.5 mg/kg/injection, schedule: Q01DX009 (ip), vehicle: saline with Tween-80 92 % of control | [11] 92 % of control | [12] 93 % of control and 96 % of control | [13] 96 % of control | [14] 96 % of control

Cc1ncc(C(N)=S)c(N)n1
inactive: [12] 103 % of control | [13] 108 % of control | [14] 105 % of control

COc1ccc(C(CC(=O)O)C(N)C(=O)O)cc1 (stereo not drawn)
inactive: [6] 88 % of control | [7] 87 % of control | [8] 95 % of control

NC(N)=Nc1ccc(C(=O)Oc2ccc([N+](=O)[O-])cc2)cc1
inactive: dose: 100.0 mg/kg/injection, schedule: Q04DX003 (ip), vehicle: saline with Tween-80 104 % of control | dose: 200.0 mg/kg/injection, schedule: Q04DX003 (ip), vehicle: saline with Tween-80 100 % of control | dose: 400.0 mg/kg/injection, schedule: Q04DX003 (ip), vehicle: saline with Tween-80 95 % of control

CCN=NNc1ccc(C)cc1
inactive: [11] 110 % of control

C=C1C(=O)OC2/C=C(\C)C(O)CCC(C)(O)CC(OC(=O)/C(C)=C/C)C12 (stereo not drawn)
inactive: dose: 7.5 mg/kg/injection, schedule: Q01DX009 (ip), vehicle: saline with Tween-80 104 % of control | dose: 15.0 mg/kg/injection, schedule: Q01DX009 (ip), vehicle: saline with Tween-80 98 % of control | dose: 30.0 mg/kg/injection, schedule: Q01DX009 (ip), vehicle: saline with Tween-80 104 % of control | dose: 60.0 mg/kg/injection, schedule: Q01DX009 (ip), vehicle: saline with Tween-80 108 % of control

Cc1cccc(Nc2cc(Cl)nc(SCC(=O)O)n2)c1C
inactive: [2] 100 % of control | [3] 98 % of control | [4] 100 % of control

CO/N=C(\N)NC(=O)Cc1c(Cl)cccc1Cl
inactive: dose: 6.25 mg/kg/injection, schedule: Q01DX005 (ip), vehicle: Klucel (hydroxypropylcellulose) (HPC) 94 % of control | dose: 12.5 mg/kg/injection, schedule: Q01DX005 (ip), vehicle: Klucel (hydroxypropylcellulose) (HPC) 98 % of control | dose: 25.0 mg/kg/injection, schedule: Q01DX005 (ip), vehicle: Klucel (hydroxypropylcellulose) (HPC) 100 % of control and 101 % of control | dose: 50.0 mg/kg/injection, schedule: Q01DX005 (ip), vehicle: Klucel (hydroxypropylcellulose) (HPC) 103 % of control and 90 % of control | dose: 100.0 mg/kg/injection, schedule: Q01DX005 (ip), vehicle: Klucel (hydroxypropylcellulose) (HPC) 100 % of control

COc1ccc([N+]([O-])=NC#N)cc1
inactive: dose: 12.5 mg/kg/injection, schedule: Q01DX009 (ip), vehicle: Klucel (hydroxypropylcellulose) (HPC) 95 % of control | [1] 98 % of control | [5] 109 % of control | dose: 50.0 mg/kg/injection, schedule: Q04DX003 (ip), vehicle: Klucel (hydroxypropylcellulose) (HPC) 99 % of control | dose: 100.0 mg/kg/injection, schedule: Q04DX003 (ip), vehicle: Klucel (hydroxypropylcellulose) (HPC) 100 % of control

CCCCN(C(=O)c1ccccc1)c1nc2ccccc2n1C
inactive: dose: 100.0 mg/kg/injection, schedule: Q04DX003 (ip), vehicle: saline 95 % of control | dose: 200.0 mg/kg/injection, schedule: Q04DX003 (ip), vehicle: saline 98 % of control | dose: 400.0 mg/kg/injection, schedule: Q04DX003 (ip), vehicle: saline 99 % of control

S=C1NCCNC(=S)SSSS1
inactive: [9] 107 % of control | dose: 100.0 mg/kg/injection, schedule: Q01DX005 (ip), vehicle: saline with Tween-80 114 % of control | [10] 113 % of control

c1ccc2c3c([nH]c2c1)CCCCC3
inactive: [11] 96 % of control | [12] 109 % of control | [13] 106 % of control | [14] 118 % of control

O=C(O)c1cn2c3c(cc(N4CCN(CCO)CC4)cc3c1=O)SCC2
inactive: [15] 104 % of control | [16] 113 % of control | [17] 105 % of control

O=C1c2cc([N+](=O)[O-])ccc2-c2c(N=Cc3ccc4c(c3)OCO4)cccc21
inactive: [15] 90 % of control | [16] 91 % of control | [17] 99 % of control
